From the OPERA property sets (Mansouri et al. 2018)

Compound | boiling point [°C] | log10 vapour pressure (mmHg) | melting point [°C] | ready biodegradability | log10 Koc (L/kg) | log10 biodegradation half-life (days) | log10 Henry constant (atm·m³/mol) | log10 Koa | logP
ClCC(Cl)=C(Cl)Cl | 167 | 0.428 |  |  |  |  |  |  | 
Nc1c(Cl)cc(Cl)cc1Cl | 262 |  | 78.5 | not readily biodegradable |  |  |  |  | 
BrC=CBr | 110 | 1.49 | -37.5 | not readily biodegradable | 1.65 |  |  |  | 
COCCC(=O)OC | 143 |  |  |  |  |  |  |  | 
COc1ccccc1C=C(C(=O)O)c1ccccc1 |  |  | 158 |  |  |  |  |  | 
NS(=O)(=O)c1cc2c(cc1C(F)(F)F)NCNS2(=O)=O |  |  | 270 |  |  |  |  |  | 
CC(C)c1cccc(C(C)C)c1 | 203 | -0.406 | -63.1 |  |  |  |  |  | 
CCC(=O)OCC1CCCO1 (stereo unspecified) | 206 |  |  |  |  |  |  |  | 
CCCCCCCCCCCCCCCCCCCCCCC | 380 | -4.76 | 47.6 | readily biodegradable |  | 2.16 |  |  | 
CCCCC(CC)COC(=O)CCCCC(=O)OCC(CC)CCCC (stereo unspecified) | 417 | -6.07 | -67.8 | readily biodegradable | 4.19 |  | -6.36 |  | 
CC(C)(O)CCl | 128 |  | -20 |  |  |  |  |  | 
OCC1CCC(CO)O1 (stereo unspecified) | 265 |  |  |  |  |  |  |  | 
Cc1c(C)c(O)c(C)c(C)c1O |  |  | 233 |  |  |  |  |  | 
c1ccc2c(c1)OCCOCCOCCOCCO2 |  |  | 79 |  |  |  |  |  | 
CCOC(=O)C(Br)CC (stereo unspecified) | 177 |  |  |  |  |  |  |  | 
CC(c1ccccc1)C(C)(C)O (stereo unspecified) | 197 |  | 46 |  |  |  |  |  | 
CC(=O)c1cccc([N+](=O)[O-])c1 | 202 |  | 81 |  |  |  |  |  | 
O=S1(=O)CCCCO1 |  |  | 13.5 |  |  |  |  |  | 
O=C1C=C(c2ccccc2)CC1 | 234 |  | -23 |  |  |  |  |  | 
O=C(c1ccccc1)c1ccc(Br)cc1 | 350 |  | 82.5 |  |  |  |  |  | 

Compound | boiling point [°C] | log10 vapour pressure (mmHg) | melting point [°C] | ready biodegradability | log10 Koc (L/kg) | log10 biodegradation half-life (days) | log10 Henry constant (atm·m³/mol) | log10 Koa | logP
C=CC[C@H](C)O | 116 |  |  |  |  |  |  |  | 
Brc1cc(Br)c(Br)c(Br)c1 | 329 |  | 99.5 |  |  |  |  |  | 
CCc1cccc(C)c1 | 161 | 0.483 | -95.5 |  |  | 0.477 |  |  | 
CCOC(=O)c1ccc([N+](=O)[O-])cc1 | 186 |  | 57 |  | 2.48 |  |  |  | 
Nc1ccc(N)c(N)c1 | 340 |  | 97.3 |  |  |  |  |  | 
O=C1OC2(OC=C(c3ccccc3)C2=O)c2ccccc21 (stereo unspecified) |  |  | 154 |  |  |  |  |  | 
CN(C)CCc1c[nH]c2ccc(O)cc12 |  |  | 146 |  |  |  |  |  | 
C1=CCC1 | 2 |  |  |  |  |  |  |  | 
Cn1cnc2ncnc-2c1N |  | -11.8 |  |  |  |  |  |  | 
C=C(CC)C(C)C | 89 |  |  |  |  |  |  |  | 
S=C(SSSSC(=S)N1CCCCC1)N1CCCCC1 |  |  |  | not readily biodegradable |  |  |  |  | 
Nc1ccc(C(=O)O)c(N)c1 |  |  | 140 |  |  |  |  |  | 
O=C(O)CC[N+](=O)[O-] |  |  | 62 |  |  |  |  |  | 
CCN1CCN(c2cc3c(cc2F)c(=O)c(C(=O)O)cn3C2CC2)CC1 |  |  | 220 |  |  |  |  |  | 
COc1cc(N)ccc1C | 251 |  | 56.5 |  |  |  |  |  | 
C1CCSC1 | 121 | 1.26 | -96.1 |  |  |  |  |  | 
C=C(C)C(=O)OCC1CO1 (stereo unspecified) |  |  |  | readily biodegradable |  |  |  |  | 
Cc1cccc(Nc2ccccc2C(=O)O)c1C |  |  | 230 |  |  |  |  |  | 
C=C(C)c1ccc(Cl)cc1 |  |  |  | not readily biodegradable |  |  |  |  | 
Clc1cc(Cl)c(-c2cc(Cl)c(Cl)c(Cl)c2Cl)cc1Cl |  | -6.01 |  |  |  |  | -5 | 9.88 | 7.72

Compound | boiling point [°C] | log10 vapour pressure (mmHg) | melting point [°C] | ready biodegradability | log10 Koc (L/kg) | log10 biodegradation half-life (days) | log10 Henry constant (atm·m³/mol) | log10 Koa | logP
Nc1ccc(Br)cc1C(=O)O |  |  | 220 |  |  |  |  |  | 
CCN(CC)C(=O)C(C)Oc1cccc2ccccc12 (stereo unspecified) |  | -6.76 | 75 |  | 2.76 |  |  |  | 
CCCC(O)CC (stereo unspecified) |  |  |  | not readily biodegradable |  |  |  |  | 
CC(CCO)CCO |  |  |  | readily biodegradable |  |  |  |  | 
Clc1ccc(-c2ccccc2)c(Cl)c1 |  | -2.86 |  |  |  |  | -3.55 |  | 
CCCC(CC)C(C)C (stereo unspecified) | 138 |  |  |  |  |  |  |  | 
OC[C@H]1O[C@H](O)[C@H](O)[C@@H](O)[C@@H]1O |  | -13.1 |  |  |  |  |  |  | 
CC12CCC(C(=O)C1=O)C2(C)C (racemic) |  |  | 199 |  |  |  |  |  | 
CCOc1ccc(Br)cc1 | 231 |  | 4 |  |  |  |  |  | 
c1ccc2c(c1)CCCC2 | 208 | -0.434 | -35.7 | not readily biodegradable |  | 0.903 |  |  | 
CCCC(=O)N(CSP(=S)(OC)OC)c1ccccc1Cl |  |  | 42 |  |  |  |  |  | 
ClCCOCOCCCl | 218 | -0.879 | -32 |  | 1.79 |  |  |  | 
CC1=C(/C=C/C(C)=C/C=C/C(C)=C/C=C/C=C(C)/C=C/C=C(C)/C=C/C2=C(C)C[C@H](O)CC2(C)C)C(C)(C)CCC1 |  |  | 160 |  |  |  |  |  | 
CCCCc1ccc(C=O)cc1 |  |  |  | not readily biodegradable |  |  |  |  | 
c1ccc2c(c1)sc1ccccc12 | 332 | -3.69 | 97 | not readily biodegradable | 4.05 | 1.56 |  |  | 
C=CCCCl | 75 |  |  |  |  |  |  |  | 
CCCCCCCCCCCCCCCCCCCCCC(=O)OC |  |  | 54 |  |  |  |  |  | 
C[C@]12CC[C@H](O)C[C@H]1CC[C@@H]1[C@@H]2C[C@@H](O)[C@]2(C)[C@@H](C3=CC(=O)OC3)CC[C@]12O |  |  | 222 |  |  |  |  |  | 
c1ccc(Nc2ccccc2)cc1 | 302 | -3.17 | 52.9 | not readily biodegradable | 2.78 |  |  | 7.64 | 
